What follows are molecules tested against Trx-6×His-BCL6 (human BCL6 BTB domain covering amino-acid sequence 5-129) (Homo sapiens (Human), UniProt P41182) (assay: HTRF in vitro assay (BCL6 / BCOR-AF633 peptide)). Conditions: further generated data; 1 nM Trx-6×His-BCL6, 300 nM BCOR-AF633 peptide, 0.5 nM anti-6×His-Terbium cryptate.
Type: binding
Protocol: The % inhibition at each concentration was calculated by normalising FRET ratio to the appropriate high (DMSO with all reagents) and low (DMSO without BCL6) controls.

Row | Compound | HTRF pIC50
1 | CCNC(C)CCn1c(=O)n(C)c2ccc(Nc3ccnc(Cl)c3C#N)cc21.Cl (stereo not shown) [Example 26a, 2-chloro-4-((3-(3-(ethylamino)butyl)-1-methyl-2-oxo-2,3-dihydro-1H-benzo[d]imidazol-5-yl)amino)nicotinonitrile hydrochloride] | 5.41
2 | C#CCC(C)(O)CCn1c(=O)n(C)c2ccc(Nc3ccnc(Cl)c3C#N)cc21 (stereo not shown) [Example 27a, 2-chloro-4-((3-(3-hydroxy-3-methylhex-5-yn-1-yl)-1-methyl-2-oxo-2,3-dihydro-1H-benzo[d]imidazol-5-yl)amino)nicotinonitrile] | 5.86
3 | COCC(C)(O)CCn1c(=O)n(C)c2ccc(Nc3ccnc(Cl)c3C#N)cc21 (stereo not shown) [Example 27b, 2-chloro-4-((3-(3-hydroxy-4-methoxy-3-methylbutyl)-1-methyl-2-oxo-2,3-dihydro-1H-benzo[d]imidazol-5-yl)amino)nicotinonitrile] | 6.14
4 | CCC(C)(O)CCn1c(=O)n(C)c2ccc(Nc3ccnc(Cl)c3C#N)cc21 (stereo not shown) [Example 27c, 2-chloro-4-((3-(3-hydroxy-3-methylpentyl)-1-methyl-2-oxo-2,3-dihydro-1H-benzo[d]imidazol-5-yl)amino)nicotinonitrile] | 5.93
5 | Cn1c(=O)n(CCC(C)(O)C(F)(F)F)c2cc(Nc3ccnc(Cl)c3C#N)ccc21 (stereo not shown) [Example 27d, 2-chloro-4-((1-methyl-2-oxo-3-(4,4,4-trifluoro-3-hydroxy-3-methylbutyl)-2,3-dihydro-1H-benzo[d]imidazol-5-yl)amino)nicotinonitrile] | 5.70
6 | CC(Cn1c(=O)n(C)c2ccc(Nc3ccnc(Cl)c3C#N)cc21)C(C)(C)O (stereo not shown) [Example 27e, 2-chloro-4-((3-(3-hydroxy-2,3-dimethylbutyl)-1-methyl-2-oxo-2,3-dihydro-1H-benzo[d]imidazol-5-yl)amino)nicotinonitrile] | 5.55
7 | CC(C)C(C)(O)CCn1c(=O)n(C)c2ccc(Nc3ccnc(Cl)c3C#N)cc21 (stereo not shown) [Example 27f, 2-chloro-4-((3-(3-hydroxy-3,4-dimethylpentyl)-1-methyl-2-oxo-2,3-dihydro-1H-benzo[d]imidazol-5-yl)amino)nicotinonitrile] | 5.40
8 | Cn1c(=O)n(CCC(C)(C)O)c2cc(Nc3ccnc(F)c3Cl)ccc21 [Example 29a, 5-((3-chloro-2-fluoropyridin-4-yl)amino)-3-(3-hydroxy-3-methylbutyl)-1-methyl-1,3-dihydro-2H-benzo[d]imidazol-2-one] | 6.21
9 | Cn1c(=O)n(CCC(C)(C)O)c2cc(Nc3ccnc(Cl)c3Cl)ccc21 [Example 29b, 5-((2,3-dichloropyridin-4-yl)amino)-3-(3-hydroxy-3-methylbutyl)-1-methyl-1,3-dihydro-2H-benzo[d]imidazol-2-one] | 5.88
10 | Cn1c(=O)n(CCC(C)(C)O)c2cc(Nc3ccncc3Br)ccc21 [Example 29c, 5-((3-bromopyridin-4-yl)amino)-3-(3-hydroxy-3-methylbutyl)-1-methyl-1,3-dihydro-2H-benzo[d]imidazol-2-one] | 5.38
11 | Cn1c(=O)n(CCC(C)(C)O)c2cc(Nc3cc(C(F)(F)F)ncc3Cl)ccc21 [Example 29d, 5-((5-chloro-2-(trifluoromethyl)pyridin-4-yl)amino)-3-(3-hydroxy-3-methylbutyl)-1-methyl-1,3-dihydro-2H-benzo[d]imidazol-2-one] | 5.48
12 | Cn1c(=O)n(CCC(C)(C)O)c2cc(Nc3ccncc3Cl)ccc21 [Example 29e, 5-((3-chloropyridin-4-yl)amino)-3-(3-hydroxy-3-methylbutyl)-1-methyl-1,3-dihydro-2H-benzo[d]imidazol-2-one] | 5.93
13 | Cn1c(=O)n(CCC(C)(C)O)c2cc(Nc3nc(N4CCCC4=O)ncc3Cl)ccc21 [Example 30b, 5-((5-chloro-2-(2-oxopyrrolidin-1-yl)pyrimidin-4-yl)amino)-3-(3-hydroxy-3-methylbutyl)-1-methyl-1,3-dihydro-2H-benzo[d]imidazol-2-one] | 5.99
14 | Cn1c(=O)n(CCC(C)(C)O)c2cc(Nc3nc(N4CCC[C@H]4CO)ncc3Cl)ccc21 [Example 31a, (S)-5-((5-chloro-2-(2-(hydroxymethyl)pyrrolidin-1-yl)pyrimidin-4-yl)amino)-3-(3-hydroxy-3-methylbutyl)-1-methyl-1,3-dihydro-2H-benzo[d]imidazol-2-one] | 6.46
15 | Cn1c(=O)n(CCC(C)(C)O)c2cc(Nc3cc(N4CCC[C@H]4CO)nc4c(C#N)cnn34)ccc21 [Example 31b, (S)-7-((3-(3-hydroxy-3-methylbutyl)-1-methyl-2-oxo-2,3-dihydro-1H-benzo[d]imidazol-5-yl)amino)-5-(2-(hydroxymethyl)pyrrolidin-1-yl)pyrazolo[1,5-a]pyrimidine-3-carbonitrile] | 5.73
16 | Cn1c(=O)n(CCC2(C)CO2)c2cc(Nc3ccnc(Cl)c3C#N)ccc21 (stereo not shown) [Example 32, 2-chloro-4-((1-methyl-3-(2-(2-methyloxiran-2-yl)ethyl)-2-oxo-2,3-dihydro-1H-benzo[d]imidazol-5-yl)amino)nicotinonitrile] | 5.44
17 | CN1CC(C)(CCn2c(=O)n(C)c3ccc(Nc4ccnc(Cl)c4C#N)cc32)OC1=O (stereo not shown) [Example 33, 2-chloro-4-((3-(2-(3,5-dimethyl-2-oxooxazolidin-5-yl)ethyl)-1-methyl-2-oxo-2,3-dihydro-1H-benzo[d]imidazol-5-yl)amino)nicotinonitrile] | 5.43
18 | CC1OC(=O)NC1Cn1c(=O)n(C)c2ccc(Nc3ccnc(Cl)c3C#N)cc21 (stereo not shown) [Example 34, 2-chloro-4-((1-methyl-3-((5-methyl-2-oxooxazolidin-4-yl)methyl)-2-oxo-2,3-dihydro-1H-benzo[d]imidazol-5-yl)amino)nicotinonitrile] | 5.31
19 | Cn1c(=O)n(CCC(C)(C)O)c2cc(Nc3nc(N4CCC5(CC4)CC(F)(F)C5)ncc3Cl)ccc21 [Example 35f, 5-((5-chloro-2-(2,2-difluoro-7-azaspiro[3.5]nonan-7-yl)pyrimidin-4-yl)amino)-3-(3-hydroxy-3-methylbutyl)-1-methyl-1,3-dihydro-2H-benzo[d]imidazol-2-one] | 6.05
20 | Cn1c(=O)n(CCC(C)(C)O)c2cc(Nc3nc(N4C[C@@H](F)[C@@H](F)C4)ncc3Cl)ccc21 [Example 35h, 5-((5-chloro-2-((3R,4S)-3,4-difluoropyrrolidin-1-yl)pyrimidin-4-yl)amino)-3-(3-hydroxy-3-methylbutyl)-1-methyl-1,3-dihydro-2H-benzo[d]imidazol-2-one] | 6.36
21 | Cn1c(=O)n(C[C@@H]2CCCN2CC(F)(F)F)c2cc(Nc3nc(N4CC(C)(C)OC(C)(C)C4)ncc3Cl)ccc21 [Example 35i, (S)-5-((5-chloro-2-(2,2,6,6-tetramethylmorpholino)pyrimidin-4-yl)amino)-1-methyl-3-((1-(2,2,2-trifluoroethyl)pyrrolidin-2-yl)methyl)-1,3-dihydro-2H-benzo[d]imidazol-2-one] | 6.01
22 | Cn1c(=O)n(CCC(C)(C)O)c2cc(Nc3nc(N4C[C@@H]5CC[C@@H](C5)C4)ncc3Cl)ccc21 [Example 35n, 5-((2-((1R,5S)-3-azabicyclo[3.2.1]octan-3-yl)-5-chloropyrimidin-4-yl)amino)-3-(3-hydroxy-3-methylbutyl)-1-methyl-1,3-dihydro-2H-benzo[d]imidazol-2-one] | 6.05

— patent US12110286B2, “Benzimidazolone derived inhibitors of BCL6” (Cancer Research Technology Limited, priority 2017, dated 2024)
